Laboratory results published in patent US20120010272A1, “RNA Interference Mediated Inhibition of Apoptosis Signal-Regulating Kinase 1 (ASK1) Gene Expression Using Short Interfering Nucleic Acid (siNA)” (Merck Sharp & Dohme Corp., priority 2009, published 2012).
[invAb] = inverted abasic unit; d = 2'-deoxy (DNA); m = 2'-O-methyl; r = 2'-OH (RNA); f = 2'-fluoro

Experiments:
Format in all cases: cell-based
ASK1 mRNA [1] = experiment: ASK1 mRNA knock-down by siNA in human A549 cells (RNAiMax transfection, Taqman RT-PCR); conditions: for % KD Human: 10 nM siNA, 24 hrs post-transfection, vs non-targeting control, GAPDH-normalized, mean ± S.D.; for % KD Human / % KD ASK-1 10 nM: two experiments; for % KD ASK-1 mRNA at 10 nM: mean ± S.D. (Table 5); for % KD ASK-1 10 nM: mean ± standard deviation (Table 6)
Protocol: A549 (human; ATCC cat #CCL-185): Cells were cultured at 37° C. in the presence of 5% CO2 and grown in Ham's F12K medium with 2 mM L-glutamine adjusted to contain 1.5 g/L sodium bicarbonate and supplemented with fetal bovine serum at a final concentration of 10%, 100 μg/mL of streptomycin, and 100 U/mL penicillin.
(§1) Cells were plated in all wells of a tissue-culture treated, 96-well plate at a final count of 5000 cells/well (A549 cell line) and 3,500 cells/well (Hepal-6 cell line) in 100 μL of the appropriate culture media. The cells were cultured for 24 hours after plating at 37° C. in the presence of 5% CO2.
(§2) After 24 hours, complexes containing siNA and RNAiMax were created as follows: A solution of RNAiMax diluted 33-fold in OPTI-MEM was prepared. In parallel, solutions of the siNAs for testing were prepared to a final concentration of 120 nM in OPTI-MEM. After incubation of RNAiMax/OPTI-MEM solution at room temperature for 5 min, an equal volume of the siRNA solution and the RNAiMax solution were added together for each of the siNAs.
(§3) This solution was incubated at room temperature for 20 minutes. After incubation, 20 uL of the solution was added to each of the relevant wells. The final concentration of siNA in each well was 10 nM and the final volume of RNAiMax in each well was 0.3 ul.
(§4) The time of incubation with the RNAiMax-siNA complexes was 24 hours and there was no change in media between transfection and harvesting, unless otherwise indicated.
(§5) RNA was extracted from a 96-well plate using the TaqMan® Gene Expression Cells-to-CT™ Kit (Cat #4399002) with a modified protocol. Briefly, a 60 uL (1 plate) or 110 uL (2 plates) of the Lysis Solution with DNase I was dispensed into each well of the Lysis Buffer Plate (twin.tec full skirt plate). The lysis buffer and stop plates were stored at 4° C. until the cells were washed.
(§6) The plate was spun at 1100 rpm for 5 minutes. The culture medium was aspirated and discarded from the wells of the culture plate. The lysis was performed automatically using a BioMek FX instrument and method. After the Biomek method was completed, the lysis plate was incubated for 2 min. at room temperature. The lysis plate can be stored for 2 hours at 4° C., or at −20° C. or −80° C. for two months.
(§7) Each well of the reverse transcription plate required 10 uL of 2× reverse transcriptase Buffer, 1 uL of 20× reverse transcription enzyme and 2 uL of nuclease-free water. The reverse transcription master mix was prepared by mixing 2× reverse transcription buffer, 20× reverse transcription enzyme mix, and nuclease-free water. 13 uL of the reverse transcription master mix was dispensed into each well of the reverse transcription plate (semi-skirted). A separate reverse transcription plate was prepared for each cell plate. The plate was loaded onto a Biomek NX or Biomek FX Dual-96 and the Biomek method was run. The program is programmed to automatically added 7 uL of lysate from the cell lysis procedure described above into each well of the reverse transcription plate. The plate is sealed and spun on a centrifuge (1000 rpm for 30 seconds) to settle the contents to the bottom of the reverse transcription plate. The plate is placed in a thermocycler at 37° C. for 60 min, 95° C. for 5 min, and 4° C. until the plate is removed from the thermocycler. Upon removal, if not used immediately, the plate was frozen at −20° C.
(§8) A series of probes and primers were used to detect the various mRNA transcripts of the genes of ASK1, ASK2, and GAPDH in human cell lines and ASK1 and GAPDH in mouse cell lines. All Taqman probes and primers for the experiments were supplied as pre-validated sets by ABI (see Table 2).
(§9) The assays were performed on an ABI 7900 instrument, according to the manufacturer's instructions. A TaqMan Gene Expression Master Mix (provided in the Cells-to-CT™, Applied Biosystems, Cat #4399002) was used. […]

ASK1 mRNA [2] = experiment: as above; conditions: 12 concentrations 0.083 fM to 30 nM, mean ± S.D.
[3] = tested on: mRNA transcript of human ASK2; experiment: ASK2 specificity screen: effect of ASK1 siNAs on human ASK2 mRNA in A549 cells; conditions: 1 nM siNA, three independent experiments, mean ± standard deviation
Protocol: A549 cells were plated in all wells of a tissue-culture treated, 96-well plate at a final count of 5,000 cells/well in 100 μL of appropriate culture media. Cells were cultured for 24 hours after plating at 37° C. in the presence of 5% CO2.
as §2, with “follows.” for “follows:”, “siRNAs” for “siNAs”, “12” for “120”, “siNA” for “siRNA”, “siNAs. […] This solution was incubated at room temperature for 20 minutes. After incubation, 20 uL of the solution was added to each of the relevant wells. The final concentration of siNA in each well was 1 nM and the final volume of RNAiMax in each well was 0.3 uL. The time of incubation with the RNAiMax-siNA complexes was 24 hours.” for “siNAs.”
as §5, §6, §7, §8
The assays were performed on an ABI 7900 instrument, according to the manufacturer's instructions. A TaqMan Gene Expression Master Mix (provided in the Cells-to-CT™, Applied Biosystems, Cat #4399002) was used. The PCR reactions were carried out at 50° C. for 2 min, 95° C. for 10 min followed by 40 cycles at 95° C. for 15 secs and 60° C. for 1 min.
The expression level of the gene of interest and % knock-down was calculated using Comparative Ct method:
ΔΔCt=ΔCt(Target siRNA)−ΔCt(NTC)
Relative expression level=2^−ΔΔCt
The non-targeting control siRNA was, unless otherwise indicated, chosen as the value against which to calculate the % knock-down, because it is the most relevant control.
The specificity of these siNAs was also assessed. […]

ASK1 mRNA [4] = experiment: ASK1 mRNA knock-down by siNA in mouse Hepa1-6 cells (RNAiMax transfection, Taqman RT-PCR); conditions: 10 nM siNA, 24 hrs post-transfection, vs non-targeting control, GAPDH-normalized, mean ± S.D., two experiments
Protocol: Hepal-6 (murine; ATCC cat #CRL-1830): Cells were cultured at 37° C. in the presence of 5% CO2 and grown in Dulbecco's modified Eagle's medium (DMEM) with 4 mM L-glutamine adjusted to contain 1.5 g/L sodium bicarbonate and 4.5 g/L glucose and supplemented with 10% of fetal bovine serum, 100 μg/mL of streptomycin, and 100 U/mL penicillin.
as §1, §2, §3, §4, §5, §6, §7, §8, §9

Substance | % KD Human (ASK1 mRNA [1]) [%] | % KD ASK-1 mRNA at 10 nM (ASK1 mRNA [1]) [%] | % KD ASK-1 10 nM (ASK1 mRNA [1]) [%] | IC50 (ASK1 mRNA [2]) [pM] | % KD ASK-2 1 nM [3] [%] | % KD Mouse (ASK1 mRNA [4]) [%]
25376-DC: siNA duplex, sense B GcAccAGAAAuAAuAGAuA TTB, antisense UAUcuAuuAuuucuGGuGcUU (SEQ ID NO: 33/34), human ASK1 target site 2900 (sense GCACCAGAAAUAAUAGAUATT; antisense UAUCUAUUAUUUCUGGUGCUU; chemistry not fully specified) | 89 ± 1 | 89 ± 1 | 89 ± 1 | 14 ± 4 | 5 ± 12 | 14 ± 18
25399-DC: siNA duplex, sense B ccAAcAcuAcAGucAGGAA TTB, antisense UUCcuGAcuGuAGuGuuGGUU (SEQ ID NO: 79/80), human ASK1 target site 1640 (sense CCAACACUACAGUCAGGAATT; antisense UUCCUGACUGUAGUGUUGGUU; sense: DNA at AGT, 2'-fluoro at CU, [invAb] at 5' end, 3' end, backbone not given here; antisense: sugars from the 5' end rrrffmmffmfmmfmffmmmm, backbone not given here) | 81 ± 2 | 81 ± 2 | 81 ± 2 | 150 ± 43 | 9 ± 8 | 62 ± 0
25379-DC: siNA duplex, sense B cGAuGGAAAuucuAAAAAu TTB, antisense AUUuuuAGAAuuuccAucGUU (SEQ ID NO: 39/40), human ASK1 target site 4507 (sense CGAUGGAAAUUCUAAAAAUTT; antisense AUUUUUAGAAUUUCCAUCGUU; chemistry not fully specified) | 92 ± 0 | 92 ± 0 | 92 ± 0 | 9 ± 2 | −6 ± 4 | 4 ± 3
25389-DC: siNA duplex, sense B GAGAcAAuuuuAAuAuAuA TTB, antisense UAUAuAuuAAAAuuGucucUU (SEQ ID NO: 59/60), human ASK1 target site 1907 (sense GAGACAAUUUUAAUAUAUATT; antisense UAUAUAUUAAAAUUGUCUCUU; chemistry not fully specified) | 93 ± 4 | 93 ± 4 | 93 ± 4 | 3 ± 0.5 | 5 ± 4 | −4 ± 4
25374-DC: siNA duplex, sense B GcAcuGGGAAcuAcAccuu TTB, antisense AAGGuGuAGuucccAGuGcUU (SEQ ID NO: 29/30), human ASK1 target site 978 (sense GCACUGGGAACUACACCUUTT; antisense AAGGUGUAGUUCCCAGUGCUU; chemistry not fully specified) | 19 ± 4 |  |  |  |  | 43 ± 12
25387-DC: siNA duplex, sense B cAccAGAAAuAAuAGAuAA TTB, antisense UUAucuAuuAuuucuGGuGUU (SEQ ID NO: 55/56), human ASK1 target site 2901 (sense CACCAGAAAUAAUAGAUAATT; antisense UUAUCUAUUAUUUCUGGUGUU; chemistry not fully specified) | 87 ± 2 | 87 ± 2 | 87 ± 2 | 20 ± 3 | 4 ± 11 | −17 ± 11
25397-DC: siNA duplex, sense B AGccAGuAcuuccGGGAAu TTB, antisense AUUcccGGAAGuAcuGGcuUU (SEQ ID NO: 75/76), human ASK1 target site 1166 (sense AGCCAGUACUUCCGGGAAUTT; antisense AUUCCCGGAAGUACUGGCUUU; chemistry not fully specified) | 60 ± 0 |  |  |  |  | 78 ± 7
25400-DC: siNA duplex, sense B ccAcuGAccGAAAAAucAu TTB, antisense AUGAuuuuucGGucAGuGGUU (SEQ ID NO: 81/82), human ASK1 target site 3660 (sense CCACUGACCGAAAAAUCAUTT; antisense AUGAUUUUUCGGUCAGUGGUU; chemistry not fully specified) | 86 ± 4 |  |  |  |  | 74 ± 1
25386-DC: siNA duplex, sense B GAGcAAccAAGucAGAAuu TTB, antisense AAUucuGacuuGGuuGcucUU (SEQ ID NO: 53/54), human ASK1 target site 2461 (sense GAGCAACCAAGUCAGAAUUTT; antisense AAUUCUGACUUGGUUGCUCUU; inverted abasic end caps, TT overhang, chemistry not fully specified) | 80 ± 1 |  |  |  |  | 53 ± 1
25384-DC: siNA duplex, sense B GGAAcAGccuucAAAucAA TTB, antisense UUGAuuuGAAGGcuGuuccUU (SEQ ID NO: 49/50), human ASK1 target site 3958 (sense GGAACAGCCUUCAAAUCAATT; antisense UUGAUUUGAAGGCUGUUCCUU; chemistry not fully specified) | 82 ± 1 |  |  |  |  | 61 ± 0
25388-DC: siNA duplex, sense B GGuAGAGAcuuuAGAAAAA TTB, antisense UUUuucuAAAGucucuAccUU (SEQ ID NO: 57/58), human ASK1 target site 1360 (sense GGUAGAGACUUUAGAAAAATT; antisense UUUUUCUAAAGUCUCUACCUU; sense: sugars from the 5' end d2 f1 d5 f4 d9, [invAb] at 5' end, 3' end, backbone not given here; antisense: sugars from the 5' end rrrffffmmmmfffffmffmm, backbone not given here) | 89 ± 4 |  |  |  |  | 32 ± 5
